Reference: PubChem BioAssay AID252 (DTP/NCI, 2004)
Values joined by “and” are separate entries in the source; they are usually repeats but may differ in a detail not shown here. Equal entries are not always repeated. Toxic doses and inconclusive results are not listed.

Test system: BDF1 mice, intracerebral L1210 leukemia, survival T/C
Assay: NCI In Vivo Anticancer Drug Screen. Data for tumor model L1210 Leukemia (intracerebral) in B6D2F1 (BDF1) mice
Settings: endpoint: mean survival time, higher = longer survival
Outline: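 Survival measured in treated and vehicle-control tumour-bearing mice; value = T/C.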

[1] = dose: 12.0 mg/kg/injection, schedule: Q01DX001 (ip), vehicle: carboxymethylcellulose (CMC)
[2] = dose: 18.0 mg/kg/injection, schedule: Q01DX001 (ip), vehicle: carboxymethylcellulose (CMC)

## C[C@H](N)C(=O)N[C@@H]1[C@H]2C(=C(O)C[C@@H](O)[C@@H]2O)C(=O)O[C@@H]1C
dose: 125.0 mg/kg/injection, schedule: Q01DX Z (ip), vehicle: saline
  T/C: 97 % of control
dose: 211.0 mg/kg/injection, schedule: Q01DX015 (ip), vehicle: saline
  T/C: 103 % of control
dose: 250.0 mg/kg/injection, schedule: Q01DX Z (ip), vehicle: saline
  T/C: 107 % of control
dose: 320.0 mg/kg/injection, schedule: Q01DX015 (ip), vehicle: saline
  T/C: 103 % of control
dose: 480.0 mg/kg/injection, schedule: Q01DX015 (ip), vehicle: saline
  T/C: 102 % of control
dose: 500.0 mg/kg/injection, schedule: Q01DX Z (ip), vehicle: saline
  T/C: 109 % of control
dose: 720.0 mg/kg/injection, schedule: Q01DX015 (ip), vehicle: saline
  T/C: 103 % of control
dose: 750.0 mg/kg/injection, schedule: Q01DX Z (ip), vehicle: saline
  T/C: 107 % of control
dose: 1000.0 mg/kg/injection, schedule: Q01DX Z (ip), vehicle: saline
  T/C: 106 % of control
dose: 1080.0 mg/kg/injection, schedule: Q01DX015 (ip), vehicle: saline
  T/C: 105 % of control
dose: 1500.0 mg/kg/injection, schedule: Q01DX Z (ip), vehicle: saline
  T/C: 106 % of control
dose: 2024.0 mg/kg/injection, schedule: Q01DX001 (ip), vehicle: saline
  T/C: 109 % of control
dose: 3082.0 mg/kg/injection, schedule: Q01DX001 (ip), vehicle: saline
  T/C: 105 % of control

## O=C(Nc1ccc(C2=NCCN2)cc1)c1ccc(C(=O)Nc2ccc(C3=NCCN3)cc2)c(Cl)c1
dose: 12.0 mg/kg/injection, schedule: Q01DX015 (ip), vehicle: carboxymethylcellulose (CMC)
  T/C: 112 % of control
dose: 12.5 mg/kg/injection, schedule: Q01DX Z (ip), vehicle: carboxymethylcellulose (CMC)
  T/C: 114 % of control
dose: 18.0 mg/kg/injection, schedule: Q01DX015 (ip), vehicle: carboxymethylcellulose (CMC)
  T/C: 120 % of control
dose: 25.0 mg/kg/injection, schedule: Q01DX Z (ip), vehicle: carboxymethylcellulose (CMC)
  T/C: 108 % of control
dose: 27.0 mg/kg/injection, schedule: Q01DX015 (ip), vehicle: carboxymethylcellulose (CMC)
  T/C: 118 % of control
dose: 37.5 mg/kg/injection, schedule: Q01DX Z (ip), vehicle: carboxymethylcellulose (CMC)
  T/C: 102 % of control
dose: 48.0 mg/kg/injection, schedule: Q01DX001 (ip), vehicle: carboxymethylcellulose (CMC)
  T/C: 98 % of control
dose: 48.4 mg/kg/injection, schedule: Q01DX001 (ip), vehicle: carboxymethylcellulose (CMC)
  T/C: 102 % of control
dose: 50.0 mg/kg/injection, schedule: Q01DX Z (ip), vehicle: carboxymethylcellulose (CMC)
  T/C: 96 % of control
dose: 74.0 mg/kg/injection, schedule: Q01DX001 (ip), vehicle: carboxymethylcellulose (CMC)
  T/C: 107 % of control and 100 % of control

## S=P(N1CC1)(N1CC1)N1CC1
dose: 10.0 mg/kg/injection, schedule: Q01DX001 (ip), vehicle: saline
  T/C: 154 % of control
dose: 15.0 mg/kg/injection, schedule: Q01DX001 (ip), vehicle: saline
  T/C: 228 % of control

## Cc1cccc2c(Nc3ccc(NS(C)(=O)=O)cc3)c3ccc([N+](=O)[O-])cc3nc12
dose: 10.0 mg/kg/injection, schedule: Q01DX009 (ip), vehicle: saline
  T/C: 114 % of control
dose: 10.0 mg/kg/injection, schedule: Q01DX009 (sc), vehicle: saline
  T/C: 104 % of control
dose: 20.0 mg/kg/injection, schedule: Q01DX009 (ip), vehicle: saline
  T/C: 94 % of control
dose: 20.0 mg/kg/injection, schedule: Q01DX009 (sc), vehicle: saline
  T/C: 101 % of control
dose: 40.0 mg/kg/injection, schedule: Q01DX009 (sc), vehicle: saline
  T/C: 96 % of control

## CC(=O)Nc1ccc2c(Nc3ccc(NS(C)(=O)=O)cc3)c3ccccc3nc2c1
dose: 1.5 mg/kg/injection, schedule: Q01DX009 (ip), vehicle: saline
  T/C: 89 % of control
dose: 1.5 mg/kg/injection, schedule: Q01DX009 (sc), vehicle: saline
  T/C: 98 % of control
dose: 3.0 mg/kg/injection, schedule: Q01DX009 (ip), vehicle: saline
  T/C: 98 % of control
dose: 3.0 mg/kg/injection, schedule: Q01DX009 (sc), vehicle: saline
  T/C: 105 % of control
dose: 6.25 mg/kg/injection, schedule: Q01DX009 (ip), vehicle: saline
  T/C: 86 % of control
dose: 6.25 mg/kg/injection, schedule: Q01DX009 (sc), vehicle: saline
  T/C: 109 % of control
dose: 12.5 mg/kg/injection, schedule: Q01DX009 (sc), vehicle: saline
  T/C: 98 % of control

## O=NN(CCCl)C(=O)Nc1cccc2cccnc12
dose: 1.0 mg/kg/injection, schedule: Q01DX001 (ip), vehicle: carboxymethylcellulose (CMC)
  T/C: 101 % of control
dose: 1.5 mg/kg/injection, schedule: Q01DX001 (ip), vehicle: carboxymethylcellulose (CMC)
  T/C: 103 % of control
dose: 2.6 mg/kg/injection, schedule: Q01DX001 (ip), vehicle: carboxymethylcellulose (CMC)
  T/C: 104 % of control
dose: 4.0 mg/kg/injection, schedule: Q01DX001 (ip), vehicle: carboxymethylcellulose (CMC)
  T/C: 105 % of control
dose: 6.0 mg/kg/injection, schedule: Q01DX001 (ip), vehicle: carboxymethylcellulose (CMC)
  T/C: 101 % of control
dose: 9.0 mg/kg/injection, schedule: Q01DX001 (ip), vehicle: carboxymethylcellulose (CMC)
  T/C: 102 % of control
[1]
  T/C: 98 % of control
[2]
  T/C: 98 % of control

## O=NN(CCCl)C(=O)NC1Cc2ccccc2C1
dose: 55.0 mg/kg/injection, schedule: Q01DX001 (ip), vehicle: other
  T/C: 116 % of control
dose: 84.0 mg/kg/injection, schedule: Q01DX001 (ip), vehicle: other
  T/C: 123 % of control
dose: 188.0 mg/kg/injection, schedule: Q01DX001 (ip), vehicle: other
  T/C: 94 % of control

## CCN(N=O)C(N)=O
dose: 67.0 mg/kg/injection, schedule: Q01DX001 (ip), vehicle: carboxymethylcellulose (CMC)
  T/C: 97 % of control
dose: 100.0 mg/kg/injection, schedule: Q01DX001 (ip), vehicle: carboxymethylcellulose (CMC)
  T/C: 105 % of control
dose: 150.0 mg/kg/injection, schedule: Q01DX001 (ip), vehicle: carboxymethylcellulose (CMC)
  T/C: 104 % of control

## CS(=O)(=O)OCCCCOS(C)(=O)=O
dose: 27.0 mg/kg/injection, schedule: Q01DX001 (ip), vehicle: carboxymethylcellulose (CMC)
  T/C: 95 % of control
dose: 41.0 mg/kg/injection, schedule: Q01DX001 (ip), vehicle: carboxymethylcellulose (CMC)
  T/C: 93 % of control
dose: 61.0 mg/kg/injection, schedule: Q01DX001 (ip), vehicle: carboxymethylcellulose (CMC)
  T/C: 94 % of control

## O=NN(CCCl)C(=O)NC1C2CC3CC(C2)CC1C3 (stereo not given)
dose: 22.0 mg/kg/injection, schedule: Q01DX001 (ip), vehicle: other
  T/C: 109 % of control and 119 % of control
dose: 45.0 mg/kg/injection, schedule: Q01DX001 (ip), vehicle: other
  T/C: 175 % of control and 231 % of control
dose: 91.0 mg/kg/injection, schedule: Q01DX001 (ip), vehicle: other
  T/C: 340 % of control and 376 % of control
dose: 144.0 mg/kg/injection, schedule: Q01DX001 (ip), vehicle: other
  T/C: 153 % of control
dose: 181.0 mg/kg/injection, schedule: Q01DX001 (ip), vehicle: other
  T/C: 250 % of control and 335 % of control
dose: 215.0 mg/kg/injection, schedule: Q01DX001 (ip), vehicle: other
  T/C: 238 % of control
dose: 322.0 mg/kg/injection, schedule: Q01DX001 (ip), vehicle: other
  T/C: 217 % of control
dose: 362.0 mg/kg/injection, schedule: Q01DX001 (ip), vehicle: other
  T/C: 103 % of control

## O=NN(CCCl)C(=O)N[C@H]1CCCC[C@H]1Cl
dose: 8.0 mg/kg/injection, schedule: Q01DX001 (ip), vehicle: carboxymethylcellulose (CMC)
  T/C: 103 % of control
[1]
  T/C: 106 % of control and 110 % of control and 90 % of control
[2]
  T/C: 106 % of control
dose: 40.0 mg/kg/injection, schedule: Q01DX001 (ip), vehicle: carboxymethylcellulose (CMC)
  T/C: 117 % of control
dose: 51.0 mg/kg/injection, schedule: Q01DX001 (ip), vehicle: carboxymethylcellulose (CMC)
  T/C: 281 % of control and 306 % of control
dose: 54.0 mg/kg/injection, schedule: Q01DX001 (ip), vehicle: carboxymethylcellulose (CMC)
  T/C: 198 % of control
dose: 62.0 mg/kg/injection, schedule: Q01DX001 (ip), vehicle: carboxymethylcellulose (CMC)
  T/C: 159 % of control and 165 % of control and 176 % of control
dose: 72.0 mg/kg/injection, schedule: Q01DX001 (ip), vehicle: carboxymethylcellulose (CMC)
  T/C: 251 % of control
dose: 90.0 mg/kg/injection, schedule: Q01DX001 (ip), vehicle: carboxymethylcellulose (CMC)
  T/C: 209 % of control and 221 % of control and 270 % of control
dose: 101.0 mg/kg/injection, schedule: Q01DX001 (ip), vehicle: carboxymethylcellulose (CMC)
  T/C: 413 % of control and 550 % of control
dose: 108.0 mg/kg/injection, schedule: Q01DX001 (ip), vehicle: carboxymethylcellulose (CMC)
  T/C: 307 % of control
dose: 135.0 mg/kg/injection, schedule: Q01DX001 (ip), vehicle: carboxymethylcellulose (CMC)
  T/C: 278 % of control and 305 % of control
dose: 203.0 mg/kg/injection, schedule: Q01DX001 (ip), vehicle: carboxymethylcellulose (CMC)
  T/C: 119 % of control and 94 % of control
